Assay results as given in US8299111B2, “Compounds which modulate the CB2 receptor” (Boehringer Ingelheim International GmbH, priority 2006, dated 2012).

Each molecule was assayed against T1, human CB2R (Homo sapiens, UniProt P34972) (assay: CB2R mediated modulation of cAMP synthesis). Conditions: found through the use of the above described assays (binding and cAMP); CHO cells expressing human CB2R, forskolin-stimulated cAMP.
T1 construct: host or cells: CHO cells
Assay type: cell-based
Summary of the method: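 CHO cells expressing human CB2R were treated for 30 min at 37 °C with compound in buffer containing 1 mM IBMX, 0.25% BSA and 10 uM forskolin. cAMP was measured after lysis. EC50 is the concentration giving 50% inhibition of forskolin-stimulated cAMP, scaled to the level set by 1 uM CP55940, fitted by four-parameter logistic.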

T1 sequence (P34972 whole entry): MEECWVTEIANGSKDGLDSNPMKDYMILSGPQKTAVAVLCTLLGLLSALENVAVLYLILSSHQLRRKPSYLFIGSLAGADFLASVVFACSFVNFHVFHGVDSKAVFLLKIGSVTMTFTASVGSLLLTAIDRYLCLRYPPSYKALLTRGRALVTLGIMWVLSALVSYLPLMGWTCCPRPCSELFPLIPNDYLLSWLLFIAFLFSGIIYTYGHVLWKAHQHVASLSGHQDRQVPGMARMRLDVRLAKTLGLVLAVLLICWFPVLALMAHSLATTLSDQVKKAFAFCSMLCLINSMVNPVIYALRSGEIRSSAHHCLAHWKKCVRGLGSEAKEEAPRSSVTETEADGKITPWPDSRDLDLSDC

| agonistic activity | SMILES |
| --- | --- |
| agonistic activity | CC(C)(C)c1csc(NC(=O)C(C)(C)S(=O)(=O)c2cccnc2)n1 [N-(4-tert-Butyl-thiazol-2-yl)-2-methyl-2-(pyridine-3-sulfonyl)-propionamide] |
| agonistic activity | Cc1ccc(S(=O)(=O)C(C)(C)C(=O)Nc2nc(C(C)(C)C)cs2)cc1 [N-(4-tert-Butyl-thiazol-2-yl)-2-methyl-2-(toluene-4-sulfonyl)-propionamide] |
| agonistic activity | CC(C)C(C(=O)Nc1nc(C(C)(C)C)cs1)S(=O)(=O)c1ccc(C(F)(F)F)cc1 (stereo not drawn) [N-(4-tert-Butyl-thiazol-2-yl)-3-methyl-2-(4-trifluoromethyl-benzenesulfonyl)-butyramide] |
| agonistic activity | CC(C)(C)c1ccc(NC(=O)C(C)(C)S(=O)(=O)c2ccc(C(F)(F)F)nc2)cc1 [N-(4-tert-butylphenyl)-2-methyl-2-{[6-(trifluoromethyl)pyridin-3-yl]sulfonyl}propanamide] |
| agonistic activity | Cn1nc(C2CC2)cc1NC(=O)C(C)(C)S(=O)(=O)c1ccc(F)cc1F [N-(5-Cyclopropyl-2-methyl-2H-pyrazol-3-yl)-2-(2,4-difluoro-benzenesulfonyl)-2-methyl-propionamide] |
| agonistic activity | CCc1sc(NC(=O)C(C)(C)S(=O)(=O)c2ccc(OC)cc2)nc1-c1ccccc1 [N-(5-ethyl-4-phenyl-1,3-thiazol-2-yl)-2-[(4-methoxyphenyl)sulfonyl]-2-methylpropanamide] |
| agonistic activity | CCc1sc(NC(=O)C(C)(C)S(=O)(=O)c2ccc(S(C)(=O)=O)cc2)nc1-c1ccccc1 [N-(5-ethyl-4-phenyl-1,3-thiazol-2-yl)-2-methyl-2-{[4-(methylsulfonyl)phenyl]sulfonyl}propanamide] |
| agonistic activity | CCc1sc(NC(=O)C(C)(C)S(=O)(=O)c2ccc(C(F)(F)F)nc2)nc1-c1ccccc1 [N-(5-ethyl-4-phenyl-1,3-thiazol-2-yl)-2-methyl-2-{[6-(trifluoromethyl)pyridin-3-yl]sulfonyl}propanamide] |
| agonistic activity | CCC(C)c1cc(NC(=O)C(C)(C)S(=O)(=O)c2ccc(Cl)cc2)n(C)n1 (stereo not drawn) [N-(5-sec-Butyl-2-methyl-2H-pyrazol-3-yl)-2-(4-chloro-benzenesulfonyl)-2-methyl-propionamide] |
| agonistic activity | Cn1nc(C(C)(C)C)cc1NC(=O)C(C)(C)S(=O)(=O)c1ccc(F)cc1F [N-(5-tert-Butyl-2-methyl-2H-pyrazol-3-yl)-2-(2,4-difluoro-benzenesulfonyl)-2-methyl-propionamide] |
| agonistic activity | Cn1nc(C(C)(C)C)cc1NC(=O)C(C)(C)S(=O)(=O)c1cc(F)ccc1F [N-(5-tert-Butyl-2-methyl-2H-pyrazol-3-yl)-2-(2,5-difluoro-benzenesulfonyl)-2-methyl-propionamide] |
| agonistic activity | Cc1ccc(S(=O)(=O)C(C)(C)C(=O)Nc2cc(C(C)(C)C)nn2C)c(F)c1 [N-(5-tert-Butyl-2-methyl-2H-pyrazol-3-yl)-2-(2-fluoro-4-methyl-benzenesulfonyl)-2-methyl-propionamide] |
| agonistic activity | Cn1nc(C(C)(C)C)cc1NC(=O)C(C)(C)S(=O)(=O)c1ccccc1F [N-(5-tert-Butyl-2-methyl-2H-pyrazol-3-yl)-2-(2-fluoro-benzenesulfonyl)-2-methyl-propionamide] |
| agonistic activity | COc1ccc(S(=O)(=O)C(C)(C)C(=O)Nc2cc(C(C)(C)C)nn2C)cc1F [N-(5-tert-Butyl-2-methyl-2H-pyrazol-3-yl)-2-(3-fluoro-4-methoxy-benzenesulfonyl)-2-methyl-propionamide] |
| agonistic activity | Cn1nc(C(C)(C)C)cc1NC(=O)C(C)(C)S(=O)(=O)c1cccc(F)c1 [N-(5-tert-Butyl-2-methyl-2H-pyrazol-3-yl)-2-(3-fluoro-benzenesulfonyl)-2-methyl-propionamide] |
| agonistic activity | Cn1nc(C(C)(C)C)cc1NC(=O)C(C)(C)S(=O)(=O)c1ccc(Cl)cc1F [N-(5-tert-Butyl-2-methyl-2H-pyrazol-3-yl)-2-(4-chloro-2-fluoro-benzenesulfonyl)-2-methyl-propionamide] |
| agonistic activity | Cn1nc(C(C)(C)C)cc1NC(=O)C(C)(C)S(=O)(=O)c1ccc(C#N)cc1F [N-(5-tert-Butyl-2-methyl-2H-pyrazol-3-yl)-2-(4-cyano-2-fluoro-benzenesulfonyl)-2-methyl-propionamide] |
| agonistic activity | Cn1nc(C(C)(C)C)cc1NC(=O)C(C)(C)S(=O)(=O)c1ccc(C#N)cc1 [N-(5-tert-Butyl-2-methyl-2H-pyrazol-3-yl)-2-(4-cyano-benzenesulfonyl)-2-methyl-propionamide] |
| agonistic activity | COc1ccc(S(=O)(=O)C(C)(C)C(=O)Nc2cc(C(C)(C)C)nn2C)cc1 [N-(5-tert-Butyl-2-methyl-2H-pyrazol-3-yl)-2-(4-methoxy-benzenesulfonyl)-2-methyl-propionamide] |

| SMILES | agonistic activity |
| --- | --- |
| Cc1ccccc1S(=O)(=O)C(C)(C)C(=O)Nc1nc(C(C)(C)C)cs1 [N-(4-tert-Butyl-thiazol-2-yl)-2-methyl-2-(toluene-2-sulfonyl)-propionamide] | agonistic activity |
| COc1ccc(S(=O)(=O)C(C)(C)C(=O)Nc2nc(C(C)(C)C)cs2)cc1 [N-(4-tert-butyl-1,3-thiazol-2-yl)-2-[(4-methoxyphenyl)sulfonyl]-2-methylpropanamide] | agonistic activity |
| CC(C)(C)c1nc(NC(=O)C(C)(C)S(=O)(=O)c2ccc(Cl)cc2)sc1C#N [N-(4-tert-butyl-5-cyano-1,3-thiazol-2-yl)-2-[(4-chlorophenyl)sulfonyl]-2-methylpropanamide] | agonistic activity |
| CC(C)(C)c1ccc(NC(=O)C(C)(C)S(=O)(=O)c2ccc(Cl)cc2F)cc1 [N-(4-tert-butylphenyl)-2-[(4-chloro-2-fluorophenyl)sulfonyl]-2-methylpropanamide] | agonistic activity |
| CCC(C)c1ccc(NC(=O)C(C)(C)S(=O)(=O)c2ccc(Cl)cc2)nc1 (stereo not drawn) [N-(5-sec-Butyl-pyridin-2-yl)-2-(4-chloro-benzenesulfonyl)-2-methyl-propionamide] | agonistic activity |
| Cc1ccc(S(=O)(=O)C(C)(C)C(=O)Nc2cc(C(C)(C)C)nn2C)cc1F [N-(5-tert-Butyl-2-methyl-2H-pyrazol-3-yl)-2-(3-fluoro-4-methyl-benzenesulfonyl)-2-methyl-propionamide] | agonistic activity |
| Cn1nc(C(C)(C)C)cc1NC(=O)C(C)(C)S(=O)(=O)c1ccc(Cl)cc1 [N-(5-tert-Butyl-2-methyl-2H-pyrazol-3-yl)-2-(4-chloro-benzenesulfonyl)-2-methyl-propionamide] | agonistic activity |
| Cn1nc(C(C)(C)C)cc1NC(=O)C(C)(C)S(=O)(=O)c1ccc(F)cc1 [N-(5-tert-Butyl-2-methyl-2H-pyrazol-3-yl)-2-(4-fluoro-benzenesulfonyl)-2-methyl-propionamide] | agonistic activity |
